According to patent US9670231B2, “Fused tricyclic amide compounds as multiple kinase inhibitors” (BEIGENE, LTD., priority 2013, dated 2017):
Like-named read-outs stand apart in the source and are kept apart here.

How the values were obtained:
Assay type in all cases: biochemical
[1] = molecular target: EGFR T790M/L858R kinase domain (Homo sapiens (Human), UniProt P00533, L858R/T790M); assay: EGFR enzymatic assay, TR-FRET, EGFR T790M/L858R
Description: (§1) Compounds disclosed herein were tested against WT EGFR kinase domain (aa.669-1210, Carna Biosciences, 08-115), EGFR T790M/L858R kinase domain (aa.669-1210, Carna Biosciences, 08-510) and EGFR L858R kinase domain (aa.669-1210, Carna Biosciences, 08-502) in assays based on time-resolved fluorescence-resonance energy transfer methodology. The assay was carried out in 384-well low volume black plate in a reaction mixture containing EGFR kinases, 20 LM for EGFR WT and T790M/L858R, and 125 LM for EGFR L858R), biotin-TK substrate and 0-5 LM compounds in buffer containing 50 mM HEPES pH7.5, 10 mM MgCl2, 1 mM EGTA, 0.01% Brij-35, 2.5 mM DTT, 0.1% BSA. The kinase was incubated with the compounds disclosed herein at room temperature for 120 minutes and the reaction was initiated by the addition of ATP and biotin-TK substrate. After reaction at room temperature for 30 minutes, an equal volume of stop/detection solution was added according to the manufacture's instruction (CisBio Bioassays). The stop/detection solution contained TK-Antibody-Cryptate and Streptavidin-XL665 in buffer containing 25 mM Tris pH7.4, 400 mM KF, 50 mM EDTA, 0.01% BSA, 0.01% Triton X-100. Plates were sealed and incubated at room temperature for 1 hour, and the TR-FRET signals were read on BMG PHERAstar FS instrument. The IC50 of an inhibitor was derived from fitting the % inhibition data at each compound concentration to the four-parameter logistic equation by Graphpad Prism software.

EGFR L858R kinase domain = EGFR L858R kinase domain (Homo sapiens (Human), UniProt P00533, L858R); assay: EGFR enzymatic assay, TR-FRET, EGFR L858R
Sequence of EGFR L858R kinase domain (P00533 669-1210 L858R): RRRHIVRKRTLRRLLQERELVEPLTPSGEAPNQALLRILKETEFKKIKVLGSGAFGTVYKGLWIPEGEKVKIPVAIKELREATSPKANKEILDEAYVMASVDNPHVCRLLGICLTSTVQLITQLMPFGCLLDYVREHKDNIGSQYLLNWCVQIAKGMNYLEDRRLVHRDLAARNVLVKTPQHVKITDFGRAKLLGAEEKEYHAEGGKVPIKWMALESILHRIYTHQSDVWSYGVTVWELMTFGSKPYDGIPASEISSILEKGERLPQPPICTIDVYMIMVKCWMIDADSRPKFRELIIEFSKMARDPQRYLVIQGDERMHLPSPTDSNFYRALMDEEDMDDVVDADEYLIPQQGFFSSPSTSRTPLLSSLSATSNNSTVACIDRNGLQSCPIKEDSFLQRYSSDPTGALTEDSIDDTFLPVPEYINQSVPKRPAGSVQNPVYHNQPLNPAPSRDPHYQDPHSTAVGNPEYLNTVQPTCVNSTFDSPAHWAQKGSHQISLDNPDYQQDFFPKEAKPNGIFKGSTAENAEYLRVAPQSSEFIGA
Description: as §1

B-Raf (V600E) = B-Raf (V600E) (Homo sapiens (Human), UniProt P15056, V600E); assay: Raf IC50 assay, TR-FRET, B-Raf (V600E); settings: 0.1 mM ATP; read-out: IC50 BRAF-V600E
Sequence of B-Raf (V600E) (P15056 whole entry V600E): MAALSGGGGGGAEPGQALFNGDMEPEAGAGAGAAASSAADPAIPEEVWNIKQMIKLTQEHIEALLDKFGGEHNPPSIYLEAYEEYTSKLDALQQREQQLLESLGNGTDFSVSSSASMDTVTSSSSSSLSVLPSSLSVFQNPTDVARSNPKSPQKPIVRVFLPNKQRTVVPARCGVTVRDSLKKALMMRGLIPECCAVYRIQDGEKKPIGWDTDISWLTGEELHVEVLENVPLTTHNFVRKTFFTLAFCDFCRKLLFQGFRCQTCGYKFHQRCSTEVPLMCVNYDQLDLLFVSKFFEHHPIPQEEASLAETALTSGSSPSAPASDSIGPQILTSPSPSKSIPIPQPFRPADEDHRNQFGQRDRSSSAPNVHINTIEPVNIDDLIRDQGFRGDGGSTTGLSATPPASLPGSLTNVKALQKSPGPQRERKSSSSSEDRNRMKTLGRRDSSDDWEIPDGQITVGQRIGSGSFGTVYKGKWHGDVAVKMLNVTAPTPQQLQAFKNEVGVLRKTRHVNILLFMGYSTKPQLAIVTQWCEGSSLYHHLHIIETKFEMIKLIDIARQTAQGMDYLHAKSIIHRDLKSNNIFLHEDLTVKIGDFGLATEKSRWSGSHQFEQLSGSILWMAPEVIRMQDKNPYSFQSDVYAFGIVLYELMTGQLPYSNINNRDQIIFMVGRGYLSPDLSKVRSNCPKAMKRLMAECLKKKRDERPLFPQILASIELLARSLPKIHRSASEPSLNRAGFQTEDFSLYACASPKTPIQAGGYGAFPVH
Description: The enzyme was incubated with the compounds disclosed herein at room temperature for 60 minutes and the reactions were initiated by the addition of ATP and GST-MEK1. After reaction at room temperature for 60 minutes, an equal volume of stop/detection solution was added according to the manufacture's instruction (CisBio Bioassays). […] The IC50 for each compound was derived from fitting the dose-response % inhibition data to the four-parameter logistic model by Graphpad Prism software.

WT EGFR kinase domain = WT EGFR kinase domain (Homo sapiens (Human), UniProt P00533); assay: EGFR enzymatic assay, TR-FRET, WT EGFR
Sequence of WT EGFR kinase domain (P00533 669-1210): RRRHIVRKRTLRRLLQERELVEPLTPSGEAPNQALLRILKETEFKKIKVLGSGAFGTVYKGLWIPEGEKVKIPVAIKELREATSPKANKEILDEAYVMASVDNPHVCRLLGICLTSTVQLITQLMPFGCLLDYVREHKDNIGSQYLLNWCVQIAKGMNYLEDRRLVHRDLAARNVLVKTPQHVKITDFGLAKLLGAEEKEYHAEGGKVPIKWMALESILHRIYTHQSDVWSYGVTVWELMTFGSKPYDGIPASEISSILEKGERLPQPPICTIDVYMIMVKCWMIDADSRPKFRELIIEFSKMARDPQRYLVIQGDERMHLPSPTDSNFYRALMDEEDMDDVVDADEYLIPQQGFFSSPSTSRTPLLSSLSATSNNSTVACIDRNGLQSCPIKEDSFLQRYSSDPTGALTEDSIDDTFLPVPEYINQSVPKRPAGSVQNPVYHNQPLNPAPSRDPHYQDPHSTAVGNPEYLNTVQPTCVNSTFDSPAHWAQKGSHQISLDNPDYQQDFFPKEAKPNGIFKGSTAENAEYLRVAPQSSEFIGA
Description: as §1

C-Raf (Y340D/Y341D) = C-Raf (Y340D/Y341D) (Homo sapiens (Human), UniProt P04049, Y340D/Y341D); assay: Raf IC50 assay, TR-FRET, C-Raf (Y340D/Y341D); settings: 0.1 mM ATP
Sequence of C-Raf (Y340D/Y341D) (P04049 whole entry Y340D/Y341D): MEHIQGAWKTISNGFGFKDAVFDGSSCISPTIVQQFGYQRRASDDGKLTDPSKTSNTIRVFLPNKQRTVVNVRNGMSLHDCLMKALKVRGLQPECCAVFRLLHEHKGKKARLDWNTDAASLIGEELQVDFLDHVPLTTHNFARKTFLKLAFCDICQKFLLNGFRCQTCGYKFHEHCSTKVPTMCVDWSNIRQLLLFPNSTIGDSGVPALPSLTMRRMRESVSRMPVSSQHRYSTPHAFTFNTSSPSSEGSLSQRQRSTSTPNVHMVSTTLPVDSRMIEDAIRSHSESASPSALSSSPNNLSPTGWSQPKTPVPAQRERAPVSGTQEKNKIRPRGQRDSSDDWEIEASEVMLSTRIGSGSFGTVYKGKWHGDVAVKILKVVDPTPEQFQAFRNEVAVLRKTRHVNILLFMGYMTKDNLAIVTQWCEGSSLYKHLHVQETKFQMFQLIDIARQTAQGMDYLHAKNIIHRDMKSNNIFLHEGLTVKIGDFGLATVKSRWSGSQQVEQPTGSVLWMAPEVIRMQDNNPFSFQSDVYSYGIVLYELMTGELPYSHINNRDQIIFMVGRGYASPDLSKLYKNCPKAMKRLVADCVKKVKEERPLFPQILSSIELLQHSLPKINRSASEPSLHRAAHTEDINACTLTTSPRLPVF
Description: Compounds disclosed herein were tested against B-Raf (V600E) (PV3849, from Invitrogen) or C-Raf (Y340D/Y341D) (PV3805, from Invitrogen) in a time-resolved fluorescence energy transfer assay. The assay was carried out in reactions (10 μL) containing 0.0625 nM B-Raf or 0.5 nM C-Raf, 25 mM Tris pH7.4, 10 mM MgCl2, 0.5 mM EGTA, 0.5 mM Na3VO4, 5 mM beta-glycerophosphate, 0.01% Triton X-100, 2.5 mM DTT, 0.1% BSA, 0.1 mM ATP, 13.7 nM GST-tagged MEK1 (Full-length protein with K97R mutation, recombinant protein purified from bacterial expression system) and 0-5 μM compounds disclosed herein (final concentration of 1% DMSO). The enzyme was incubated with the compounds disclosed herein at room temperature for 60 minutes and the reactions were initiated by the addition of ATP and GST-MEK1. After reaction at room temperature for 60 minutes, an equal volume of stop/detection solution was added according to the manufacture's instruction (CisBio Bioassays). The stop/detection solution contained Eu^3+ cryptate-conjugated anti-phospho MEK1/2 (Ser217/221) rabbit polyclonal antibody and d2-conjugated anti-GST mouse monoclonal antibody in buffer containing 25 mM Tris pH7.4, 400 mM KF, 50 mM EDTA, 0.01% BSA and 0.01% Triton X-100. Plates were sealed and incubated at room temperature for 2 hours, and the TR-FRET signals (ratio of fluorescence emission at 665 nm over emission at 620 nm with excitation at 337 nm wavelength) were recorded on a PHERAstar FS plate reader (BMG Labtech). Phosphorylation of MEK1 led to the binding of anti-phospho-MEK1/2 antibody to GST-MEK1 protein that place fluorescent donor (Eu^3+ crypate) in close proximity to the accepter d2 on the anti-GST antibody, thus resulting in a high degree of fluorescence resonance energy transfer from the donor fluorophore (at 620 nm) to the acceptor fluorophore (at 665 nm). […] The IC50 for each compound was derived from fitting the dose-response % inhibition data to the four-parameter logistic model by Graphpad Prism software.

wild type B-Raf = wild type B-Raf (Homo sapiens (Human), UniProt P15056); assay: WT BRaf IC50 assay, TR-FRET; parameters: Braf-WT Km ATP, % at 100 nM: scale not given here; settings: for Braf-WT Km ATP, % at 100 nM: at 100 nM compound
Sequence of wild type B-Raf (P15056 whole entry): as the sequence (P15056 whole entry V600E) above, with E600V counted along it
Description: WT BRaf IC50 Assay Protocol
Compounds disclosed herein were tested against wild type B-Raf (PV3848, from Invitrogen) in a time-resolved fluorescence energy transfer assay. […] The enzyme was incubated with the compounds disclosed herein at room temperature for 120 minutes and the reactions were initiated by the addition of ATP and GST-MEK1. After incubating at room temperature for 60 minutes, an equal volume of stop buffer containing 25 mM Tris pH7.4, 400 mM KF, 50 mM EDTA, 0.1% BSA, 0.01% Triton X-100, 1 test of Eu3+Cryptate-conjugated rabbit polyclonal antibody anti-Phospho MEK1/2 (Ser217/221) and 1 test of d2-conjugated mouse monoclonal antibody anti-glutathione S-transferase was added to stop the reactions. Plates were sealed and incubated at room temperature for 1.5 hours, and then the TR-FRET signals were read on BMG PHERAstar FS instrument. The IC50 for each compound was calculated by non linear regression by Graphpad Prism software.

[2] = Km ATP ([…] ATP), read-out: IC50 Braf-WT Km ATP

Sequence of EGFR T790M/L858R kinase domain (P00533 669-1210 T790M/L858R): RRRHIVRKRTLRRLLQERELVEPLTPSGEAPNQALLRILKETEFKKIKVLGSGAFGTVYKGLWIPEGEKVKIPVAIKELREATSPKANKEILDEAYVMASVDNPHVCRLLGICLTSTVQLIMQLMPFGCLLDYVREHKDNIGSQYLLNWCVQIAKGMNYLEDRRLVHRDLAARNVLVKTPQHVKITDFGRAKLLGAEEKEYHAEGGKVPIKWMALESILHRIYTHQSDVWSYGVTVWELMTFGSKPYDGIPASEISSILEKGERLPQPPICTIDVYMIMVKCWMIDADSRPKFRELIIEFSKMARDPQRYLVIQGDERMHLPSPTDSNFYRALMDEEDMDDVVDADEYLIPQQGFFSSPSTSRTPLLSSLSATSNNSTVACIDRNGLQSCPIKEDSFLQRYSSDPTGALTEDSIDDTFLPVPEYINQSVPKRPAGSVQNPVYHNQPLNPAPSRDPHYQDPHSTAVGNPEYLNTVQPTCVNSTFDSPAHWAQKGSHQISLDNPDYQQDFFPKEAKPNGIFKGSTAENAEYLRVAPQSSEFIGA

| IC50 [1] | IC50 (EGFR L858R kinase domain) | IC50 (B-Raf (V600E)) | IC50 (WT EGFR kinase domain) | IC50 (C-Raf (Y340D/Y341D)) | IC50 (wild type B-Raf; IC50 Braf-WT […] ATP, […] ATP) | IC50 (wild type B-Raf; [2]) | Braf-WT Km ATP, % at 100 nM (wild type B-Raf) | Compound |
| --- | --- | --- | --- | --- | --- | --- | --- | --- |
| 0.1 nM | 0.11 nM | 5.3 nM | 0.5 nM | 0.94 nM | 27 nM | 9.5 nM |  | CCN1CCN(Cc2ccc(C(=O)N[C@@H]3[C@H]4Oc5ccc(Oc6ccnc7c6CCC(=O)N7)cc5[C@@H]34)cc2C(F)(F)F)CC1 [Compound 1.1, 4-((4-ethylpiperazin-1-yl)methyl)-N-((1S,1aS,6bS)-5-((7-oxo-5,6,7,8-tetrahydro-1,8-naphthyridin-4-yl)oxy)-1a,6b-dihydro-1H-cyclopropa[b]benzofuran-1-yl)-3-(trifluoromethyl)benzamide] |
| 0.088 nM | 0.079 nM | 7.1 nM | 0.7 nM | 1.9 nM | 36 nM | 14 nM |  | CN1CCN(Cc2ccc(C(=O)N[C@@H]3[C@H]4Oc5ccc(Oc6ccnc7c6CCC(=O)N7)cc5[C@@H]34)cc2C(F)(F)F)CC1 [Compound 1.3] |
| 2.3 nM | 0.46 nM | 8.1 nM | 1.4 nM | 1.5 nM | 31 nM | 7.9 nM |  | CCN1CCN(Cc2ccc(C(=O)N[C@@H]3[C@H]4Oc5ccc(Oc6ccnc7c6CCC(=O)N7)cc5[C@@H]34)cc2F)CC1 [Compound 1.4] |
| 7.1 nM | 1 nM | 12 nM | 2.3 nM | 2.1 nM | 39 nM | 15 nM |  | CCN1CCN(Cc2cc(C(=O)N[C@@H]3[C@H]4Oc5ccc(Oc6ccnc7c6CCC(=O)N7)cc5[C@@H]34)cc(C(F)(F)F)c2)CC1 [Compound 1.5] |
| 54 nM | 16 nM | 36 nM | 9.8 nM | 3.5 nM | 130 nM | 36 nM |  | O=C1CCc2c(Oc3ccc4c(c3)[C@H]3[C@H](NC(=O)c5ccc(CN6CCOCC6)c(C(F)(F)F)c5)[C@H]3O4)ccnc2N1 [Compound 1.7] |
|  |  | 20 nM |  | 1.7 nM |  | 20 nM |  | O=C1CCc2c(Oc3ccc4c(c3)[C@H]3[C@H](NC(=O)c5ccc(CN6CCn7c(nnc7C(F)(F)F)C6)c(C(F)(F)F)c5)[C@H]3O4)ccnc2N1 [Compound 1.14] |
| 316 nM | 52 nM | 2.5 nM | 85 nM |  |  | 1.4 nM |  | N#CC1(c2cccc(C(=O)N[C@@H]3[C@H]4Oc5ccc(Oc6ccnc7c6CCC(=O)N7)cc5[C@@H]34)c2)CC1 [Compound 1.46, 3-(1-cyanocyclopropyl)-N-((1S,1aS,6bS)-5-((7-oxo-5,6,7,8-tetrahydro-1,8-naphthyridin-4-yl)oxy)-1a,6b-dihydro-1H-cyclopropa[b]benzofuran-1-yl)benzamide] |
|  |  | 14 nM |  | 1.61 nM |  | 9.8 nM |  | CN1CCC(Oc2ccc(C(=O)N[C@@H]3[C@H]4Oc5ccc(Oc6ccnc7c6CCC(=O)N7)cc5[C@@H]34)cc2C(F)(F)F)CC1 [Compound 1.51, 4-((1-methylpiperidin-4-yl)oxy)-N-((1S,1aS,6bS)-5-((7-oxo-5,6,7,8-tetrahydro-1,8-naphthyridin-4-yl)oxy)-1a,6b-dihydro-1H-cyclopropa[b]benzofuran-1-yl)-3-(trifluoromethyl)benzamide] |
| 1140 nM | 68 nM | 16 nM | 678 nM |  |  |  | 86% at 100 nM | O=C(/C=C/c1cccc(C(F)(F)F)c1)N[C@@H]1[C@H]2Oc3ccc(Oc4ccnc5c4CCC(=O)N5)cc3[C@@H]12 [Compound 1.53] |
| 757 nM | 152 nM | 4.9 nM | 326 nM |  |  |  | 93% at 100 nM | O=C1CCc2c(Oc3ccc4c(c3)[C@H]3[C@H](NC(=O)c5ccc(-c6ccccc6)o5)[C@H]3O4)ccnc2N1 [Compound 1.54] |
|  |  | 2840 nM |  | 277 nM |  |  | −2% at 100 nM | N[C@@H]1[C@H]2Oc3ccc(Oc4ccnc5c4CCC(=O)N5)cc3[C@@H]12 [Intermediate I, 5-(((1S,1aS,6bS)-1-amino-1a,6b-dihydro-1H-cyclopropa[b]benzofuran-5-yl)oxy)-3,4-dihydro-1,8-naphthyridin-2(1H)-one] |
